Literature values as cited in patent US12377214B2 (priority 2016, dated 2025).

Test system: BIS index
Conditions: in vivo

## CC(C)c1cccc(C(C)C)c1O [propofol]
  Cp50 (interaction model parameter, effect site concentration of propofol): 4.47
